Data on one compound can be found in patent US20110251238A1, “PPAR AGONIST COMPOSITIONS AND METHODS OF USE” (BIOPHARMED, priority 2008, published 2011).

One experiment concerns U138 MG (human glioma). In words: Growth inhibition, MTT colorimetric assay, U138. The note with it: Homo sapiens, U138-MG, 72 h; glioma; 3 days with drug; means of six values; unit inferred; read-out: IC50 U138. The experiment is classed as cell-based. Put shortly:
(§1)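 3-day continuous drug exposure; MTT readout; IC50 = mean of 6 values, SE <5% of mean.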

The subject of experiment [1] is BxPC3 (pancreatic cancer). Put plainly: Growth inhibition, MTT colorimetric assay, BxPC3. The experiment is classed as cell-based, human. Particulars: Homo sapiens, BXPC-3, 72 h; carcinoma; 3 days with drug; means of six values; unit inferred; read-out: IC50 BxPC3. In outline:
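Cells were cultured at 37° C with 5% CO2 in the presence of drug for 3 days. Proliferation was read by MTT absorbance at 570 nm. IC50 values are means of six distinct values.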

The test system of the next experiment is B16-F10 (mouse melanoma). Put plainly: Growth inhibition, MTT colorimetric assay, B16F10. Type of experiment: cell-based. Particulars: Mus musculus, B16-F10, 72 h; melanoma; 3 days with drug; means of six values; unit inferred; read-out: IC50 B16F10. In outline:
as §1
(Tetrazolium assays rely on reduction of a dye to a coloured formazan, in cell work by metabolically active cells.)

The next experiment has as its system GL19. Put plainly: Growth inhibition, MTT colorimetric assay, GL19. Particulars: GL19, 72 h; 3 days with drug; means of six values; unit inferred; read-out: IC50 GL19. The experiment is classed as cell-based. Put shortly: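 Growth inhibition: cells cultured with drug 3 days, then MTT colorimetric readout. Cytotoxic activity given as IC50.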

In general, IC50 refers to the point on the concentration scale where inhibition reaches its midpoint.

In the case of `Oc1ccc(CN(Cc2ccc(C(F)(F)F)cc2)Cc2ccc(O)c3ncccc23)c2cccnc12` [BPM18,708, 5,5′-(4-(trifluoromethyl)benzylazanediyl)bis(methylene)diquinolin-8-ol], the IC50 was 49 nM in the experiment with U138 MG (human glioma), 4300 nM in experiment [1], 92 nM in the experiment on B16-F10 (mouse melanoma) and 1240 nM in the experiment with GL19.
